Consider 2 compounds from patent US20080153853A1, “USE OF MTKI 1 FOR TREATING OR PREVENTING BRAIN CANCER” (priority 2006, published 2008).

The structures appear in SMILES notation.

The test system of data set [1] is A431 vulval carcinoma cells (s.c. tumor). The experiment in a line: Subcutaneous injection of A431 cells in rats: s.c. tumor growth. The conditions noted are these: for Effect on subcutaneous A431 tumor growth (median s.c. tumor volumes, FIG. 1): MTKI 1 p.o. at all doses tested (50, 75, 100 mpk), BCNU i.v. day 4 and day 18; for Treatment versus Control (taking control as 100%), median s.c. A431 tumor volume: day 18, 24 hr after last treatment. The data set is classed as in vivo, rat. As for the experimental part: A431 (ATCC, Rockville, Md. USA) vulval carcinoma cells were stereo-tactically injected into athymic nude rats and mice. Tumor growth delay was followed by using animal survival as readout in the rat study or using MRI imaging in the case of the mouse study. Subcutaneous Injection of Cells in Rats The same day of the stereotaxic injection, rats were injected subcutaneously with A431 cells at D0. The tumor was obtained in rats by subcutaneous (SC) injection of 1×10^7 A431 cells in RPMI medium (200 μl) in their right flank. For subcutaneous injection of tumor cells, rats were anesthetised by inhalation of Isoflurane Forene (Minerve, Bondoufle, France). MTKI 1 (Compound 1 in the figures hereinafter) was dissolved in a solution of 20% Hydroxypropyl-β-cyclodextrine (20% β-HP-Cyclodextrin, pH 4.0) and given by oral gavage, daily for a period of fourteen days starting four days post inoculation of the cells, i.e. from day 4-17. Vehicle treated animals only received the β-HP-Cyclodextrin solution. The reference compound BCNU (Carmustin) was dosed intravenously on day 4 and day 18.

Data set [2] can be described thus: Clinical signs of toxicity (body weight loss, behavioral changes) in treated tumor-bearing rats. Particulars: high dose 15 mpk i.v. day 4 and day 18. As for the experimental part: (§1) MTKI 1 (Compound 1 in the figures hereinafter) was dissolved in a solution of 20% Hydroxypropyl-β-cyclodextrine (20% β-HP-Cyclodextrin, pH 4.0) and given by oral gavage, daily for a period of fourteen days starting four days post inoculation of the cells, i.e. from day 4-17. Vehicle treated animals only received the β-HP-Cyclodextrin solution.
(§2) The reference compound BCNU (Carmustin) was dosed intravenously on day 4 and day 18.

In data set [3] the test system is A431 vulval carcinoma cells (intracranial tumor). The experiment in a line: Stereotaxic injection of A431 cells in the brain of rats: animal survival. In kind it is in vivo, rat. Particulars: rats with intracranial and s.c. A431 tumors, vehicle 49.
Excerpt: A431 (ATCC, Rockville, Md. USA) vulval carcinoma cells were stereo-tactically injected into athymic nude rats and mice. Tumor growth delay was followed by using animal survival as readout in the rat study or using MRI imaging in the case of the mouse study.
Stereotaxic Injection of Cells in the Brain of Rats
Forty (40) rats (Wistar, BDIX or Sprague Dawley) in part I and 40 nude rats were sterotaxically injected with cells at D0. For stereotaxic injection of tumor cells, rats were anesthetised by an intramuscular injection of a Ketamine (Ketamine500®, Ref 043KET204, Centravet, France) and Xylazine (Rompun®, Ref 002ROM001, Centravet, France) mixture (2/1, v/v, 70 and 15 mg/kg, respectively). 1×10^5 A431 Cells were stereotaxically injected using 4 independant stereotaxic apparatus (Kopf Instrument, Germany and Stoelting Company, USA) in the right frontal lobe with 1×10^5 tumor cells re-suspended in 5 μl of RPMI medium. Five μl of the cell suspension was injected according to SOP No TEC-083/001 at 0.5 μl/min. After cells injection, rats were observed during 1 hour.
as §1, §2

Consider `O=NN(CCCl)C(=O)NCCCl` [BCNU, reference compound], for which the “Effect on subcutaneous A431 tumor growth (median s.c. tumor volumes, FIG. 1)” value in data set [1] is recorded as “no effect”. In data set [2], the “Clinical signs of toxicity, i.e. body weight loss” value is reported as “may have induced some mild toxicity”.
Regarding `COc1cc2ncnc3c2cc1OCCCCCN(C)Cc1ccc(Br)cc1N3` [MTKI 1, 4,6-ethanediylidenepyrimido[4,5-b][6,1,12]benzoxadiazacyclo-pentadecine, 17-bromo-8,9,10,11,12,13,14,19-octahydro-20-methoxy-13-methyl], the “Treatment versus Control (taking control as 100%), median s.c. A431 tumor volume” value is 5.37% in data set [1] (50 mpk p.o. QDx14 (day 4-17)), 4.29% in data set [1] (75 mpk p.o. QDx14 (day 4-17)) and 3.17% in data set [1] (100 mpk p.o. QDx14 (day 4-17)). Moreover, the “Effect on subcutaneous A431 tumor growth (median s.c. tumor volumes, FIG. 1)” value in data set [1] is “clearly inhibited”. In addition, the “Survival times (50%)” value in data set [3] (50 mpk p.o. daily day 4-17) is given as 61 days; in data set [3] (75 mpk p.o. daily day 4-17), 83 days; in data set [3] (100 mpk p.o. daily day 4-17) it was 88 days.
